Tests used:
[1] = target: T1, E. coli alkaline phosphatase, native (strain CW3747) (Escherichia coli, UniProt P00634); assay: Kinetic constants, hydrolysis of PNPP to p-nitrophenol; type: biochemical; settings: native enzyme, 1M Tris HCl
T1 construct: The monomer is an unglycosylated single chain of 449 amino acids in its mature form; made in house; host or cells: E. coli strain CW3747 (ATCC 27256), enzyme isolated by the method of Applebury et al. 1970
Protocol: B, Native alkaline phosphatase, [K2 HPO4 ]-0 (0), 1×10^-5 M ( ), 3×10^-5 M (Δ). The enzyme was assayed as described under "Materials and Methods" in Example I except that the assay solution contained K2 HPO4 at the indicated concentration and PNPP at concentrations ranging from 5×10^-6 to 1×10^-3 M.
Enzyme and Chemicals - Alkaline phosphatase was isolated from E. coli strain CW3747 (A.T.C.C. 27256) according to the method described by Applebury et al. (Applebury, M. L. et al. J. Biol. Chem. 245: 4968 (1970)). Enzyme concentrations were determined spectrophotometrically at 278 nm using E1 cm^0.1% =0.72. Molar calculations were based on Mr =94,000. The enzyme activity was assayed as the rate of hydrolysis of PNPP^1 to p-nitrophenol. The reaction was monitored by following the increase in absorbance at 410 nm (Δε=1.62×10^4M^-1 cm^-1) in a solution of 1×10^-3 M PNPP, 1M Tris HCl, 10 mM MgCl2, 5×10^-5 M ZnCl2, pH 8.0, 20° C.

[2] = target: T2, E. coli alkaline phosphatase, trypsin-modified (tm-AP; NH2-terminal 10 or 11 amino acids removed, cleaved at Arg-10 Ala-11) (Escherichia coli, UniProt P00634); assay: as above; type: biochemical; settings: trypsin-modified enzyme, 1M Tris HCl
T2 construct: trypsin cleaves the Arg-10 Ala-11 bond leaving Ala as the NH2 -terminal residue; made in house; host or cells: E. coli strain CW3747 enzyme treated with trypsin, purified by chromatofocusing
T2 sequence (P00634 33-471): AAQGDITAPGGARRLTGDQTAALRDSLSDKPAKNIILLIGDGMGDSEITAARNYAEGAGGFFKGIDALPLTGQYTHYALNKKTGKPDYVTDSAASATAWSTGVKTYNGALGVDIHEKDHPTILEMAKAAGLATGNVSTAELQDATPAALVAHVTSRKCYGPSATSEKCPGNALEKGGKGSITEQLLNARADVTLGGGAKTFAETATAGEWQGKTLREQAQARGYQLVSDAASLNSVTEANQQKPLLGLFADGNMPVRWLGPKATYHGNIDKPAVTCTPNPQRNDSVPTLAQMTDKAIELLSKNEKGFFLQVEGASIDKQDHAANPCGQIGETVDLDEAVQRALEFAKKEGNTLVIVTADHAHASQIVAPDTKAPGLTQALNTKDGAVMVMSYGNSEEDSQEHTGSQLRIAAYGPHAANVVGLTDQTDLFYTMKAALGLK
Protocol: The enzyme was assayed as described under "Materials and Methods" in Example I except that the assay solution contained K2 HPO4 at the indicated concentration and PNPP at concentrations ranging from 5×10^-6 to 1×10^-3 M.
Enzyme and Chemicals - Alkaline phosphatase was isolated from E. coli strain CW3747 (A.T.C.C. 27256) according to the method described by Applebury et al. (Applebury, M. L. et al. J. Biol. Chem. 245: 4968 (1970)). Enzyme concentrations were determined spectrophotometrically at 278 nm using E1 cm^0.1% =0.72. Molar calculations were based on Mr =94,000. The enzyme activity was assayed as the rate of hydrolysis of PNPP^1 to p-nitrophenol. The reaction was monitored by following the increase in absorbance at 410 nm (Δε=1.62×10^4M^-1 cm^-1) in a solution of 1×10^-3 M PNPP, 1M Tris HCl, 10 mM MgCl2, 5×10^-5 M ZnCl2, pH 8.0, 20° C. […] Trypsin, PNPP, and carboxypeptidase Y were obtained from Sigma. […] All other chemicals employed were reagent grade.
To prepare trypsin-modified alkaline phosphatase, native alkaline phosphatase (3 mg/ml) was treated with 10% (w/w) trypsin for 60 min at 20° C. and the major protein peak was isolated using the above chromatofocusing procedure.

[3] = 10 mM MgCl2, 5×10^-5 M ZnCl2, pH 8.0, 20° C, PNPP 5×10^-6 to 1×10^-3 M

T1 sequence (P00634 23-471): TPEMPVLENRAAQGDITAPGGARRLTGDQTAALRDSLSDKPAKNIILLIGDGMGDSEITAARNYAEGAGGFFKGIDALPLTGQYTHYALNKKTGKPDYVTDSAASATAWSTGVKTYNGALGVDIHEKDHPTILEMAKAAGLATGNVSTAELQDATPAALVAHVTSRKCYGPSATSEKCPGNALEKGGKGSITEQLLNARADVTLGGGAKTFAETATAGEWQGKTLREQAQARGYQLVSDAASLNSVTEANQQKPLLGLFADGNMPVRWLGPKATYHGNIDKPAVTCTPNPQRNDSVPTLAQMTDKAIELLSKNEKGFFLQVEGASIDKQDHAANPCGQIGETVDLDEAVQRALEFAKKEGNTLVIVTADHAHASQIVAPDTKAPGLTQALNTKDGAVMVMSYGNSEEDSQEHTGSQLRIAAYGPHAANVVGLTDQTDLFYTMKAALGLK

O=[N+]([O-])c1ccc(OP(=O)(O)O)cc1 [PNPP, p-nitrophenolphosphate]
Km [1, 3]: 40 µM
Vmax (PNPP) ([1]; pH 8.0, 20° C): 2500 µmol/h/mg
Km [2, 3]: 19 µM
Vmax (PNPP) ([2]; pH 8.0, 20° C): 2000 µmol/h/mg
